This is an account of results in patent US20060167242A1, “Cephalosporin in crystalline form” (priority 2004, published 2006).

This data set is described as follows: Determination of storage stability of crystalline material (HPLC analysis after storage). Format: physicochemical. As to the method: Determination of Storage Stability of Crystalline Material of Formula I
A crystalline and an amorphous sample of (6R,7R)-7-[(Z)-2-(5-Amino-[1,2,4]thiadiazol-3yl)-2-hydroxyimino-acetylamino1-8-oxo-3-[(E)-(R)-1′-(5-methyl-2-oxo-1,3]dioxol-4-ylmethoxycarbonyl)-2-oxo-[1,3′]bipyrrolidinyl-3-ylidenemethyl]-8-oxo-5-thia-1-aza-bicyclo[4.2.0]oct-2-ene-2-carboxylic acid were stored at different temperatures for 24 hours, 28 days and for 3 months.

[1] abbreviates: 3 months, 5° C. (as compared to −20° C.).
The mark [2] stands for this setting: storage for 3 months, Temperature 5, Rel. Humidity Ca. 58%.
Setting [3] is: storage for 3 months, Temperature 25, Rel. Humidity Ca. 58%.
[4] abbreviates: storage for 3 months, −20° C., Rel. Humidity Not defined.
[5] abbreviates: storage for 24 hours, Temperature 5, Rel. Humidity Ca. 58%.
[6] abbreviates: storage for 24 hours, Temperature 25, Rel. Humidity Ca. 58%.
[7] abbreviates: storage for 24 hours, Temperature 40, Rel. Humidity Ca. 75%.
The mark [8] stands for this setting: storage for 24 hours, Temperature 60, Rel. Humidity Ca. 75%.
[9] abbreviates: storage for 24 hours, −20° C., Rel. Humidity Not defined.
[10] abbreviates: storage for 28 days, Temperature 5, Rel. Humidity Ca. 58%.
Where [11] appears, read: storage for 28 days, Temperature 25, Rel. Humidity Ca. 58%.
The mark [12] stands for this setting: storage for 28 days, −20° C., Rel. Humidity Not defined.

Regarding `Cc1oc(=O)oc1COC(=O)N1CC[C@@H](N2CC/C(=C\C3=C(C(=O)O)N4C(=O)[C@@H](NC(=O)/C(=N\O)c5nsc(N)n5)[C@H]4SC3)C2=O)C1.Cl` [crystalline compound II, (6R,7R)-7-[(Z)-2-(5-Amino-[1,2,4]thiadiazol-3-yl) -2-hydroxyimino-acetylamino]-8-oxo-3-[(E)-(R)-1′-(5-methyl-2-oxo-[1,3]dioxol-4-ylmethoxycarbonyl)-2-oxo-[1,3′]bipyrrolidinyl-3-ylidenemethyl]-8-oxo5-thia-1-aza-bicyclo[4.2.0]oct-2-ene-2-carboxylic acid Hydrochloride Trihydrate], the “decomposition on storage (in words)” value was “no decomposition” under setting [1]; “slight decomposition” (3 months, 25° C.); “slight decomposition” (28 days, 25° C.). The “Area-% (HPLC)” value reads like this: under setting [2], 93.9 Area-%; under setting [3], 93.4 Area-%; under setting [4], 94 Area-%; under setting [5], 95.7 Area-%; under setting [6], 95.75 Area-%; under setting [7], 95.45 Area-%. Also, the “Area-% (HPLC)” value is listed as 95.57 Area-% under setting [8]; 95.77 Area-% under setting [9]; 95.2 Area-% under setting [10]; 94.9 Area-% under setting [11]; 95.3 Area-% under setting [12]. Besides, under “storage for 24 hours, whole temperature range of investigation”, the “stability on storage (in words)” value was “very good stability”.

Turning to `Cc1oc(=O)oc1COC(=O)N1CC[C@@H](N2CC/C(=C\C3=C(C(=O)O)N4C(=O)[C@@H](NC(=O)/C(=N\O)c5nsc(N)n5)[C@H]4SC3)C2=O)C1` [amorphous compound I, (6R,7R)-7-[(Z)-2-(5-Amino-[1,2,4]thiadiazol-3yl)-2-hydroxyimino-acetylamino1-8-oxo-3-[(E)-(R)-1′-(5-methyl-2-oxo-1,3]dioxol-4-ylmethoxycarbonyl)-2-oxo-[1,3′]bipyrrolidinyl-3-ylidenemethyl]-8-oxo-5-thia-1-aza-bicyclo[4.2.0]oct-2-ene-2-carboxylic acid], the “decomposition on storage (in words)” value under setting [1] is on record as “slight decomposition”; the “decomposition on storage (in words)” value (3 months, 25° C.) is reported as “strongly decreased”; the “decomposition on storage (in words)” value (28 days, 5° C.) is recorded as “decreased”; the “decomposition on storage (in words)” value (storage for 24 hours, temperatures above 5° C.) was “decomposed significantly”. For the same molecule, the “Area-% (HPLC)” value is listed as 96.9 Area-% under setting [2]; 91.4 Area-% under setting [3]; 97.6 Area-% under setting [4]; 99.05 Area-% under setting [5]; 98.85 Area-% under setting [6]; 98.25 Area-% under setting [7]. In addition, the “Area-% (HPLC)” value by setting is: under setting [8], 96.67 Area-%; under setting [9], 99.04 Area-%; under setting [10], 98.1 Area-%; under setting [11], 96.4 Area-%; under setting [12], 98.6 Area-%.
